Test results: patent US7087620B2, “Liquid pharmaceutical formulations containing 3,7-diazabicyclo[3,3,1]nonane compounds and methods of treatment relating to anti-arrhythmic events” (Solvay Pharmaceuticals GmbH, priority 2002, dated 2006)

What was measured:
healthy male subjects = test: Two step infusion study in healthy male subjects: safety and tolerability; type: in vivo, human; settings: for Safety and tolerability: two step infusion of 0.4 mg tedisamil dihydrochloride per kg (0.32 mg/kg base)
Protocol: A double-blind, placebo-controlled, randomized, single iv dose, two periods cross-over study to assess the safety, tolerability, pharmacodynamics and pharmacokinetics during and following a two step infusion of Tedisamil in healthy male subjects was performed with the following drug and dosages: Tedisamil dihydrochloride/0.4 mg/kg body weight infused over 30 minutes.
Screening assessments included physical examination, ECG, HIV/Hepatitis screening, blood pressure and heart rate measurements, clinical laboratory determinations, urine drug screen, alcohol breath test, and medical history. Follow-up assessments included physical examination, ECG, blood pressure and heart rate measurements, clinical laboratory determinations, and questions for adverse events and concomitant medication. During concomitant administration of Tedisamil, blood pressure, heart rate, and ECGs were recorded. Adverse events and concomitant medication were monitored throughout the study.
Subjects who received study medication, were considered valid for safety evaluation.
Treatment emergent adverse events, defined as any adverse event present at baseline that worsened or any event that began after treatment with study medication, were summarized by COSTART term for each treatment group. Each adverse event was evaluated for frequency of occurrence, duration, intensity, action taken, outcome, and relationship to administration of the study medication. Adverse events were listed for each subject.
Listings of abnormal or out of range values for each subject were presented for vital signs, laboratory assays, and physical examinations. Adverse events, blood pressure, heart rate and clinical laboratory data were analyzed descriptively and reviewed to evaluate the safety of all randomized subjects. Any clinical abnormalities were described.

[1] = test system: patients with atrial flutter; test: Placebo-controlled ascending dose study of intravenous tedisamil: conversion to normal sinus rhythm, patients with atrial flutter; type: in vivo, human; settings: for Conversion to NSR at any time within 2.5 hrs after the start of infusion (patients converted out of total) / Conversion to NSR at any time within 2.5 hrs after the start of infusion (percentage of patients) / Conversion to NSR at any time within 2.5 hrs and remaining in NSR until 2.5 hrs after the start of infusion (patients out of total) / Conversion to NSR at any time within 2.5 hrs and remaining in NSR until 2.5 hrs after the start of infusion (percentage of patients) / Conversion to NSR at any time within 2.5 hrs and remaining in NSR until 24 hrs after the start of infusion (patients out of total) / Conversion to NSR at any time within 2.5 hrs and remaining in NSR until 24 hrs after the start of infusion (percentage of patients) / Conversion to NSR at any time within 24 hrs after the start of infusion (patients out of total) / Conversion to NSR at any time within 24 hrs after the start of infusion (percentage of patients) / Conversion to NSR at any time within 24 hrs and remaining in NSR until 24 hrs after the start of infusion (patients out of total) / Conversion to NSR at any time within 24 hrs and remaining in NSR until 24 hrs after the start of infusion (percentage of patients): patients with atrial flutter; for Conversion to NSR at any time within 2.5 hrs after start of infusion (converted/total) / Conversion to NSR at any time within 2.5 hrs after start of infusion (%): Atrial Flutter, ITT patient sample, patients with DC cardioversion excluded
Protocol: A Multi-Center, Double-Blind, Randomized, Placebo-Controlled, Sequential Ascending Dose Groups Study to evaluate the Efficacy and Safety of Intravenous Tedisamil in the Rapid Conversion to Normal Sinus Rhythm in Patients with Atrial Fibrillation or Flutter was performed.
• Tedisamil (0.4 mg/kg body weight) • Tedisamil (0.6 mg/kg body weight) • Placebo • Dosages were given as a 30 minute intravenous infusion regimen. 1. Study Design
This multicenter trial was a double-blind, randomized, placebo-controlled, ascending dose groups study comparing the efficacy and safety of intravenous tedisamil treatment versus placebo in symptomatic patients with atrial fibrillation or flutter (>3 hours and <48 hours). The primary efficacy endpoint of this study was the termination of atrial fibrillation or flutter (for at least 60 seconds) within 2.5 hours after start of the infusion.
Following screening and baseline assessments, eligible patients were randomized to tedisamil or placebo with a sequential dose escalation approach. In the first stage, patients received 0.4 mg tedisamil/kg body weight or placebo over a 30 minutes infusion period, with half the dose infused during the first 10 minutes and half the dose infused over the remaining 20 minutes. After interim safety evaluation, in the second stage, patients received 0.6 mg tedisamil/kg body weight or placebo, with the same infusion regimen.
Patients were discharged from the telemetry unit 24 hours post infusion and safety follow up was to be obtained after 28 days. Blinded reviews of 12-lead ECGs (including 60 seconds rhythm strip) and 24 hour Holters to adjudicate the clinical endpoint (conversion to normal sinus rhythm) were performed centrally according to standard guidelines.
Tedisamil dihydrochloride, 0.4 mg/kg body weight, 0.6.mg/kg body weight was administered intravenously. The total infusion time was 30 minutes, with half the dose infused within 10 minutes, and half the dose infused within the remaining 20 minutes.
The percentage of patients converted to normal sinus rhythm (for at least 60 seconds) at any time within 2.5 hours after the initiation of the infusion of study drug.
6.1.2 Secondary Efficacy • The percentage of patients converted to normal sinus rhythm (for at least 60 seconds) at any time within 2.5 hrs and remaining in sinus rhythm until 2.5 hours after initiation of the intravenous infusion of tedisamil versus placebo. • The percentage of patients converted to normal sinus rhythm (for at least 60 seconds) at any time within 24 hours after initiation of the intravenous infusion of tedisamil versus placebo. • The percentage of patients converted to normal sinus rhythm (for at least 60 seconds) at any time within 24 hrs and remaining in sinus rhythm until 24 hours after initiation of the intravenous infusion of tedisamil versus placebo. • The percentage of patients converted to normal sinus rhythm (for at least 60 seconds) at any time within 2.5 hrs and remaining in sinus rhythm until 24 hours after initiation of the intravenous infusion of tedisamil versus placebo. • The time to conversion after the start of the infusion of tedisamil versus placebo. • The dose- and concentration-response relationships of tedisamil versus placebo.
The intent-to-treat patient sample was analyzed for efficacy. All tests were two-sided and a p-value <0.05 was considered significant. Differences in percentages of conversion were compared among the treatment groups using the Pearson chi-square statistic. Safety analysis was conducted on the safety patient sample. Numbers and percentages of patients with adverse events were calculated for each treatment group, using MedDRA preferred terms and body systems. Descriptive statistics were summarized by treatment group for changes from baseline in QT, heart rate and blood pressure. […]

[2] = 0.4 mg/kg iv two-step 30 minute infusion
[3] = 0.6 mg/kg iv two-step 30 minute infusion

Structure (SMILES): C1CCC2(C1)C1CN(CC3CC3)CC2CN(CC2CC2)C1 [Tedisamil, N,N′-dicyclopropylmethyl-9,9-tetramethylene-3,7-diazabicyclo[3,3,1]nonane]
- Adverse events (AEs) (healthy male subjects; 0.4 mg/kg iv two step infusion, all judged probably related (injection site reaction, pain injection site, paresthesia)): six AEs were observed in five subjects
- Systolic and diastolic blood pressure change (healthy male subjects; first four hours after dosing, 0.4 mg/kg iv two step infusion): small increase in the arithmetic mean of systolic and diastolic blood pressure
- Pulse rate change (healthy male subjects; first hour after dosing, 0.4 mg/kg iv two step infusion): decrease in pulse rate
- Safety and tolerability (healthy male subjects): safe and well tolerated
- Safety and tolerability (healthy male subjects; listed as TEDI): safe and well tolerated
- Conversion to NSR at any time within 2.5 hrs after the start of infusion (patients converted out of total) [1, 2]: 1 out of 9
- Conversion to NSR at any time within 2.5 hrs after the start of infusion (percentage of patients) [1, 2]: (11%)
- Conversion to NSR at any time within 2.5 hrs and remaining in NSR until 2.5 hrs after the start of infusion (patients out of total) [1, 2]: 1 out of 9
- Conversion to NSR at any time within 2.5 hrs and remaining in NSR until 2.5 hrs after the start of infusion (percentage of patients) [1, 2]: (11%)
- Conversion to NSR at any time within 2.5 hrs and remaining in NSR until 24 hrs after the start of infusion (patients out of total) [1, 2]: 1 out of 7
- Conversion to NSR at any time within 2.5 hrs and remaining in NSR until 24 hrs after the start of infusion (percentage of patients) [1, 2]: (14%)
- Conversion to NSR at any time within 24 hrs after the start of infusion (patients out of total) [1, 2]: 2 out of 7
- Conversion to NSR at any time within 24 hrs after the start of infusion (percentage of patients) [1, 2]: (29%)
- Conversion to NSR at any time within 24 hrs and remaining in NSR until 24 hrs after the start of infusion (patients out of total) [1, 2]: 2 out of 7
- Conversion to NSR at any time within 24 hrs and remaining in NSR until 24 hrs after the start of infusion (percentage of patients) [1, 2]: (29%)
- Conversion to NSR at any time within 2.5 hrs after the start of infusion (percentage of patients) ([1]; 0.4 mg/kg iv two-step 30 minute infusion, listed as tedisamil): 11%
- Conversion to NSR at any time within 2.5 hrs after the start of infusion (patients converted out of total) [1, 3]: 3 out of 11
- Conversion to NSR at any time within 2.5 hrs after the start of infusion (percentage of patients) [1, 3]: (27%)
- Conversion to NSR at any time within 2.5 hrs and remaining in NSR until 2.5 hrs after the start of infusion (patients out of total) [1, 3]: 3 out of 11
- Conversion to NSR at any time within 2.5 hrs and remaining in NSR until 2.5 hrs after the start of infusion (percentage of patients) [1, 3]: (27%)
- Conversion to NSR at any time within 2.5 hrs and remaining in NSR until 24 hrs after the start of infusion (patients out of total) [1, 3]: 3 out of 7
- Conversion to NSR at any time within 2.5 hrs and remaining in NSR until 24 hrs after the start of infusion (percentage of patients) [1, 3]: (43%)
- Conversion to NSR at any time within 24 hrs after the start of infusion (patients out of total) [1, 3]: 3 out of 7
- Conversion to NSR at any time within 24 hrs after the start of infusion (percentage of patients) [1, 3]: (43%)
- Conversion to NSR at any time within 24 hrs and remaining in NSR until 24 hrs after the start of infusion (patients out of total) [1, 3]: 3 out of 7
- Conversion to NSR at any time within 24 hrs and remaining in NSR until 24 hrs after the start of infusion (percentage of patients) [1, 3]: (43%)
- Conversion to NSR at any time within 2.5 hrs after the start of infusion (percentage of patients) ([1]; 0.6 mg/kg iv two-step 30 minute infusion, listed as tedisamil): 27%
- Conversion to NSR at any time within 2.5 hrs after start of infusion (converted/total) ([1]; Female, 0.4 mg/kg): 0/2
- Conversion to NSR at any time within 2.5 hrs after start of infusion (%) ([1]; Female, 0.6 mg/kg): 33.3%
- Conversion to NSR at any time within 2.5 hrs after start of infusion (converted/total) ([1]; Female, 0.6 mg/kg): 2/6
- Conversion to NSR at any time within 2.5 hrs after start of infusion (%) ([1]; Male, 0.4 mg/kg): 14.3%
- Conversion to NSR at any time within 2.5 hrs after start of infusion (converted/total) ([1]; Male, 0.4 mg/kg): 1/7
- Conversion to NSR at any time within 2.5 hrs after start of infusion (%) ([1]; Male, 0.6 mg/kg): 20.0%
- Conversion to NSR at any time within 2.5 hrs after start of infusion (converted/total) ([1]; Male, 0.6 mg/kg): 1/5
